Numbers after ± are expanded uncertainties.
Assay: activity coefficient (dimensionless); of the first substance listed, at infinite dilution; xn = mol fraction of the nth substance listed
Conditions: Liquid, Chromatography, x1 = 0

Row | Compound | activity coefficient (323.15 K) | activity coefficient (333.15 K) | activity coefficient (343.15 K)
1 | C=CCCCC [hex-1-ene] + CCCOC[n+]1ccn(Cc2ccccc2)c1.N#C[N-]C#N | 15.9 ± 1.1 | 14.8 ± 1 | –
2 | C=CCCCC [hex-1-ene] + CCCOC[n+]1ccn(Cc2ccccc2)c1.O=S(=O)([N-]S(=O)(=O)C(F)(F)F)C(F)(F)F | 5.09 ± 0.35 | 4.32 ± 0.29 | 4.05 ± 0.28
3 | C=CCCCC [hex-1-ene] + CN(C)c1cc[n+](COCCCOC[n+]2ccc(N(C)C)cc2)cc1.O=S(=O)([N-]S(=O)(=O)C(F)(F)F)C(F)(F)F.O=S(=O)([N-]S(=O)(=O)C(F)(F)F)C(F)(F)F | 9.4 ± 0.64 | 8.7 ± 0.59 | 7.95 ± 0.54
4 | C=CCCCC [hex-1-ene] + Cn1cc[n+](COCCCOC[n+]2ccn(C)c2)c1.O=S(=O)([N-]S(=O)(=O)C(F)(F)F)C(F)(F)F.O=S(=O)([N-]S(=O)(=O)C(F)(F)F)C(F)(F)F | 15.1 ± 1 | 10.1 ± 0.69 | –
5 | CCCCCC [hexane] + CCCCCCCCn1cc[n+](COCCC)c1C.N#C[N-]C#N | 7.08 ± 0.48 | 6.92 ± 0.47 | 6.8 ± 0.46
6 | CCCCCC [hexane] + CCCCCCCCn1cc[n+](COCCC)c1C.O=S(=O)([N-]S(=O)(=O)C(F)(F)F)C(F)(F)F | 3.82 ± 0.26 | 3.74 ± 0.25 | 3.12 ± 0.21
7 | CCCCCC [hexane] + CCCCCCCCn1cc[n+](COCCCOC[n+]2ccn(CCCCCCCC)c2C)c1C.N#C[N-]C#N.N#C[N-]C#N | 8.9 ± 0.6 | – | –
8 | CCCCCC [hexane] + CCCCCCCCn1cc[n+](COCCCOC[n+]2ccn(CCCCCCCC)c2C)c1C.O=S(=O)([N-]S(=O)(=O)C(F)(F)F)C(F)(F)F.O=S(=O)([N-]S(=O)(=O)C(F)(F)F)C(F)(F)F | 3.74 ± 0.25 | 3.59 ± 0.24 | 3.45 ± 0.23
9 | CCCCCC [hexane] + CCCOC[n+]1ccc(N(C)C)cc1.O=S(=O)([N-]S(=O)(=O)C(F)(F)F)C(F)(F)F | 11.9 ± 0.81 | 11 ± 0.75 | 10.1 ± 0.69
10 | CCCCCC [hexane] + CCCOC[n+]1ccn(C)c1.O=S(=O)([N-]S(=O)(=O)C(F)(F)F)C(F)(F)F | 15.9 ± 1.1 | 13.3 ± 0.91 | –
11 | CCCCCC [hexane] + CCCOC[n+]1ccn(Cc2ccccc2)c1.N#C[N-]C#N | 32.4 ± 2.2 | – | –
12 | CCCCCC [hexane] + CCCOC[n+]1ccn(Cc2ccccc2)c1.O=S(=O)([N-]S(=O)(=O)C(F)(F)F)C(F)(F)F | 7.52 ± 0.51 | 7.21 ± 0.49 | 6.92 ± 0.47
13 | CCCCCC [hexane] + CN(C)c1cc[n+](COCCCOC[n+]2ccc(N(C)C)cc2)cc1.O=S(=O)([N-]S(=O)(=O)C(F)(F)F)C(F)(F)F.O=S(=O)([N-]S(=O)(=O)C(F)(F)F)C(F)(F)F | 7.4 ± 0.5 | 5.82 ± 0.4 | 4.7 ± 0.32
14 | CCCCCC [hexane] + Cn1cc[n+](COCCCOC[n+]2ccn(C)c2)c1.O=S(=O)([N-]S(=O)(=O)C(F)(F)F)C(F)(F)F.O=S(=O)([N-]S(=O)(=O)C(F)(F)F)C(F)(F)F | 18.2 ± 1.2 | 31 ± 2.1 | –
15 | CO [methanol] + CCCCCCCCn1cc[n+](COCCC)c1C.N#C[N-]C#N | 0.32 ± 0.03 | 0.29 ± 0.03 | 0.28 ± 0.03
16 | CO [methanol] + CCCCCCCCn1cc[n+](COCCC)c1C.O=S(=O)([N-]S(=O)(=O)C(F)(F)F)C(F)(F)F | 0.98 ± 0.06 | 0.89 ± 0.06 | 0.85 ± 0.05
17 | CO [methanol] + CCCCCCCCn1cc[n+](COCCCOC[n+]2ccn(CCCCCCCC)c2C)c1C.N#C[N-]C#N.N#C[N-]C#N | 0.2 ± 0.03 | 0.2 ± 0.03 | 0.21 ± 0.03
18 | CO [methanol] + CCCCCCCCn1cc[n+](COCCCOC[n+]2ccn(CCCCCCCC)c2C)c1C.O=S(=O)([N-]S(=O)(=O)C(F)(F)F)C(F)(F)F.O=S(=O)([N-]S(=O)(=O)C(F)(F)F)C(F)(F)F | 0.57 ± 0.04 | 0.51 ± 0.04 | 0.49 ± 0.04

From the NIST ThermoML archive (doi:10.1016/j.fluid.2014.11.020)
